In PubChem BioAssay (NCI):
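Growth conditions: 96-well plates. Treatment: test compound, 48 hours, 5 concentrations. Analysis: linear interpolation between bracketing concentrations; unreached endpoints set to highest concentration. TGI is the concentration that stops growth completely.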

Tests used:
Assay in all cases: NCI anticancer screen, dose series, 48 h
[1] = test system: A498 renal
[2] = test system: SN12C renal
[3] = test system: UACC-257 melanoma
[4] = test system: SK-MEL-28 melanoma
[5] = test system: U251 CNS
[6] = test system: SK-OV-3 ovarian
[7] = test system: 786-0 renal
[8] = test system: CCRF-CEM leukemia
[9] = test system: MDA-MB-231 breast
[10] = test system: NCI-H23 lung
[11] = test system: OVCAR-4 ovarian
[12] = test system: HOP-62 NSCLC
[13] = test system: SR leukemia
[14] = test system: BT-549 breast
[15] = test system: DU-145 prostate
[16] = test system: SK-MEL-5 melanoma
[17] = test system: NCI-H226 lung
[18] = test system: HCC-2998 colon
[19] = test system: MCF7 breast
[20] = test system: MDA-MB-435

| Structure (SMILES) | TGI [1] | TGI [2] | TGI [3] | TGI [4] | TGI [5] | TGI [6] | TGI [7] | TGI [8] | TGI [9] | TGI [10] | TGI [11] | TGI [12] | TGI [13] | TGI [14] | TGI [15] | TGI [16] | TGI [17] | TGI [18] | TGI [19] | TGI [20] |
| --- | --- | --- | --- | --- | --- | --- | --- | --- | --- | --- | --- | --- | --- | --- | --- | --- | --- | --- | --- | --- |
| Cc1ccc(S(=O)(=O)N2c3ccccc3[C@H]3CCC=C[C@H]32)cc1 | 46.2 µM | > 63.1 µM | > 95.4 µM | > 96.1 µM | 27.2 µM | 28.6 µM | > 100 µM | > 87.2 µM | > 100 µM | 52.3 µM | > 100 µM | 67.4 µM | 65.2 µM | > 100 µM | > 100 µM | > 97.5 µM | 47.3 µM | > 76.5 µM | > 100 µM | – |
| COC(=O)C(C(=O)C(=O)Nc1ccccc1C#N)c1nc2ccc([N+](=O)[O-])cc2[nH]c1=O (stereo not given) | – | > 100 µM | > 100 µM | > 100 µM | > 100 µM | > 100 µM | > 100 µM | > 100 µM | > 100 µM | > 100 µM | > 100 µM | > 100 µM | > 100 µM | > 100 µM | > 100 µM | > 100 µM | > 100 µM | > 100 µM | > 100 µM | > 100 µM |
| CCCCc1ccc(-n2sc3ncc([N+](=O)[O-])cc3c2=O)cc1 | – | 32.7 µM | 50.9 µM | 50.7 µM | 29.1 µM | > 100 µM | 28.2 µM | 32.4 µM | 23.5 µM | 24.1 µM | 35.2 µM | 36.7 µM | 45.9 µM | 33.9 µM | 57.9 µM | 27.7 µM | 51.4 µM | 27.6 µM | 40.5 µM | 52.3 µM |
| CCOC(=O)C(=[N+]=[N-])C(=O)CN1C(=O)C2CC(C)=C(C)CC2C1O (stereo not given) | – | – | > 100 µM | > 100 µM | > 100 µM | – | > 100 µM | > 100 µM | – | > 100 µM | – | > 100 µM | > 100 µM | > 100 µM | > 100 µM | > 100 µM | > 100 µM | > 100 µM | > 100 µM | > 100 µM |
| O=C1CCCC(=O)N1n1c(Cc2ccccc2)n[nH]c1=O | > 100 µM | > 100 µM | > 100 µM | > 100 µM | > 100 µM | > 100 µM | > 100 µM | > 100 µM | > 100 µM | > 100 µM | > 100 µM | > 100 µM | > 100 µM | > 100 µM | > 100 µM | > 100 µM | > 100 µM | – | > 100 µM | > 100 µM |
| O=C(O)CC1NC(/C(=C/c2ccccc2O)NC(=O)c2ccccc2)OC1=O (stereo not given) | > 100 µM | > 100 µM | > 100 µM | > 100 µM | > 80.8 µM | > 100 µM | > 100 µM | > 100 µM | > 68.3 µM | > 100 µM | > 38.2 µM | 29.5 µM | – | 52 µM | > 100 µM | > 100 µM | > 79.5 µM | > 100 µM | > 100 µM | > 100 µM |
